# Assay results as given in ChEMBL document CHEMBL1201862, “PubChem BioAssay data set” (2004).
#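 Assay format: 96-well plates, 48-hour exposure. Abbreviation: GI50, concentration required for 50% inhibition of growth.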 Activity calls are given as the source filed them. Rule as the data show it: active = GI50 up to about 1.1 µM and inactive = higher.
# What was measured:
# Assay in all cases: NCI anticancer screen, dose series, 48 h
# 786-0 = tested on: 786-0
# A498 = tested on: A498
# A549 = tested on: A549
# CAKI-1 = tested on: CAKI-1
# CCRF-CEM = tested on: CCRF-CEM
# COLO 205 = tested on: COLO 205
# DMS-114 = tested on: DMS-114
# DMS-273 = tested on: DMS-273
# EKVX = tested on: EKVX
# HCC 2998 = tested on: HCC 2998
# HCT-116 = tested on: HCT-116
# HCT-15 = tested on: HCT-15
# HL-60 = tested on: HL-60
# HOP-62 = tested on: HOP-62
# HOP-92 = tested on: HOP-92
# HT-29 = tested on: HT-29
# IGROV-1 = tested on: IGROV-1
# K562 = tested on: K562
# KM-20L2 = tested on: KM-20L2
# KM12 = tested on: KM12
# LOX IMVI = tested on: LOX IMVI
# LXFL 529 = tested on: LXFL 529
# M14 = tested on: M14
# M19-MEL = tested on: M19-MEL
# MOLT-4 = tested on: MOLT-4
# Malme-3M = tested on: Malme-3M
# NCI-H226 = tested on: NCI-H226
# NCI-H23 = tested on: NCI-H23
# NCI-H460 = tested on: NCI-H460
# NCI-H522 = tested on: NCI-H522
# OVCAR-3 = tested on: OVCAR-3
# OVCAR-4 = tested on: OVCAR-4
# OVCAR-5 = tested on: OVCAR-5
# OVCAR-8 = tested on: OVCAR-8
# RPMI-8226 = tested on: RPMI-8226
# RXF 393 = tested on: RXF 393
# RXF 631 = tested on: RXF 631
# SF-268 = tested on: SF-268
# SF-295 = tested on: SF-295
# SF-539 = tested on: SF-539
# SK-MEL-5 = tested on: SK-MEL-5
# SK-OV-3 = tested on: SK-OV-3
# SN12C = tested on: SN12C
# SNB-19 = tested on: SNB-19
# SNB-75 = tested on: SNB-75
# SR = tested on: SR
# SW-620 = tested on: SW-620
# TK-10 = tested on: TK-10
# U-251 = tested on: U-251
# UACC-257 = tested on: UACC-257
# UACC-62 = tested on: UACC-62
# UO-31 = tested on: UO-31
# XF498 = tested on: XF498
# ACHN = tested on: ACHN
# DLD-1 = tested on: DLD-1
# SK-MEL-28 = tested on: SK-MEL-28
# SK-MEL-2 = tested on: SK-MEL-2
# SNB-78 = tested on: SNB-78
# HOP-18 = tested on: HOP-18
smiles,measurement,setting,value
CC(=O)N1c2ccccc2N(C(C)=O)C1c1ccc(C2N(C(C)=O)c3ccccc3N2C(C)=O)[nH]1,GI50,786-0,> 100 µM (inactive)
same,GI50,A498,> 100 µM (inactive)
same,GI50,A549,> 100 µM (inactive)
same,GI50,CAKI-1,> 100 µM (inactive)
same,GI50,CCRF-CEM,> 100 µM (inactive)
same,GI50,COLO 205,> 100 µM (inactive)
same,GI50,DMS-114,> 100 µM (inactive)
same,GI50,DMS-273,> 100 µM (inactive)
same,GI50,EKVX,> 100 µM (inactive)
same,GI50,HCC 2998,> 100 µM (inactive)
same,GI50,HCT-116,> 100 µM (inactive)
same,GI50,HCT-15,> 100 µM
same,GI50,HL-60,> 100 µM (inactive)
same,GI50,HOP-62,> 100 µM (inactive)
same,GI50,HOP-92,> 100 µM (inactive)
same,GI50,HT-29,> 100 µM (inactive)
same,GI50,IGROV-1,> 100 µM (inactive)
same,GI50,K562,> 100 µM (inactive)
same,GI50,KM-20L2,> 100 µM (inactive)
same,GI50,KM12,> 100 µM (inactive)
same,GI50,LOX IMVI,> 100 µM (inactive)
same,GI50,LXFL 529,> 100 µM (inactive)
same,GI50,M14,> 100 µM (inactive)
same,GI50,M19-MEL,> 100 µM (inactive)
same,GI50,MOLT-4,> 100 µM (inactive)
same,GI50,Malme-3M,> 100 µM (inactive)
same,GI50,NCI-H226,> 100 µM (inactive)
same,GI50,NCI-H23,> 100 µM (inactive)
same,GI50,NCI-H460,> 100 µM (inactive)
same,GI50,NCI-H522,> 100 µM (inactive)
same,GI50,OVCAR-3,> 100 µM (inactive)
same,GI50,OVCAR-4,> 100 µM (inactive)
same,GI50,OVCAR-5,> 100 µM (inactive)
same,GI50,OVCAR-8,> 100 µM (inactive)
same,GI50,RPMI-8226,> 100 µM (inactive)
same,GI50,RXF 393,> 100 µM (inactive)
same,GI50,RXF 631,> 100 µM (inactive)
same,GI50,SF-268,> 100 µM (inactive)
same,GI50,SF-295,> 100 µM (inactive)
same,GI50,SF-539,> 100 µM (inactive)
same,GI50,SK-MEL-5,> 100 µM (inactive)
same,GI50,SK-OV-3,> 100 µM (inactive)
same,GI50,SN12C,> 100 µM (inactive)
same,GI50,SNB-19,> 100 µM (inactive)
same,GI50,SNB-75,> 100 µM (inactive)
same,GI50,SR,> 100 µM (inactive)
same,GI50,SW-620,> 100 µM (inactive)
same,GI50,TK-10,> 100 µM (inactive)
same,GI50,U-251,> 100 µM (inactive)
same,GI50,UACC-257,> 100 µM (inactive)
same,GI50,UACC-62,> 100 µM (inactive)
same,GI50,UO-31,> 100 µM (inactive)
same,GI50,XF498,> 100 µM (inactive)
Clc1ccc(OCc2nnc3n2N=C(c2ccc(Br)cc2)CS3)cc1,GI50,786-0,16.4 µM (inactive)
same,GI50,A498,5.36 µM (inactive)
same,GI50,A549,25.5 µM (inactive)
same,GI50,ACHN,23.2 µM (inactive)
same,GI50,CAKI-1,> 10 µM (inactive)
same,GI50,CCRF-CEM,> 100 µM (inactive)
same,GI50,DLD-1,> 10 µM (inactive)
same,GI50,DMS-114,13.1 µM (inactive)
same,GI50,DMS-273,29.8 µM (inactive)
same,GI50,HCC 2998,84.5 µM (inactive)
same,GI50,HCT-116,22.6 µM (inactive)
same,GI50,HCT-15,51.3 µM
same,GI50,HL-60,> 100 µM (inactive)
same,GI50,HOP-62,9.82 µM (inactive)
same,GI50,HOP-92,11.2 µM (inactive)
same,GI50,HT-29,36.2 µM (inactive)
same,GI50,K562,> 100 µM (inactive)
same,GI50,KM12,80.7 µM (inactive)
same,GI50,LOX IMVI,3.74 µM (inactive)
same,GI50,LXFL 529,15.2 µM (inactive)
same,GI50,M14,> 10 µM (inactive)
same,GI50,M19-MEL,23.6 µM (inactive)
same,GI50,MOLT-4,> 100 µM (inactive)
same,GI50,Malme-3M,28 µM (inactive)
same,GI50,NCI-H226,53.1 µM (inactive)
same,GI50,NCI-H23,40.9 µM (inactive)
same,GI50,NCI-H460,17.7 µM (inactive)
same,GI50,NCI-H522,7.1 µM (inactive)
same,GI50,OVCAR-3,> 10 µM (inactive)
same,GI50,OVCAR-4,7.89 µM (inactive)
same,GI50,OVCAR-5,> 100 µM (inactive)
same,GI50,OVCAR-8,15.9 µM (inactive)
same,GI50,RPMI-8226,30.3 µM (inactive)
same,GI50,RXF 393,12.1 µM (inactive)
same,GI50,RXF 631,> 10 µM (inactive)
same,GI50,SF-295,15.8 µM (inactive)
same,GI50,SF-539,8.43 µM (inactive)
same,GI50,SK-MEL-28,28 µM (inactive)
same,GI50,SK-MEL-2,23.4 µM (inactive)
same,GI50,SK-MEL-5,> 10 µM (inactive)
same,GI50,SK-OV-3,15 µM (inactive)
same,GI50,SN12C,52.8 µM (inactive)
same,GI50,SNB-19,23.7 µM (inactive)
same,GI50,SNB-75,2.96 µM (inactive)
same,GI50,SNB-78,21.5 µM (inactive)
same,GI50,SR,> 100 µM (inactive)
same,GI50,SW-620,32.7 µM (inactive)
same,GI50,TK-10,14.4 µM (inactive)
same,GI50,U-251,30.7 µM (inactive)
same,GI50,UACC-257,23.1 µM (inactive)
same,GI50,UACC-62,27.1 µM (inactive)
same,GI50,UO-31,2.8 µM (inactive)
same,GI50,XF498,4.24 µM (inactive)
O=C(O)CNS(=O)(=O)c1ccc(NC(=O)c2cccc([N+](=O)[O-])c2)cc1,GI50,786-0,> 100 µM (inactive)
same,GI50,A498,> 100 µM (inactive)
same,GI50,A549,> 100 µM (inactive)
same,GI50,ACHN,> 100 µM (inactive)
same,GI50,CAKI-1,> 100 µM (inactive)
same,GI50,CCRF-CEM,> 100 µM (inactive)
same,GI50,COLO 205,> 100 µM (inactive)
same,GI50,DLD-1,> 100 µM (inactive)
same,GI50,DMS-273,> 100 µM (inactive)
same,GI50,EKVX,> 100 µM (inactive)
same,GI50,HCC 2998,> 100 µM (inactive)
same,GI50,HCT-15,> 100 µM
same,GI50,HL-60,> 100 µM (inactive)
same,GI50,HOP-18,> 100 µM (inactive)
same,GI50,HOP-92,> 100 µM (inactive)
same,GI50,HT-29,> 100 µM (inactive)
same,GI50,IGROV-1,> 100 µM (inactive)
same,GI50,K562,> 100 µM (inactive)
same,GI50,KM-20L2,> 100 µM (inactive)
same,GI50,KM12,> 100 µM (inactive)
same,GI50,LOX IMVI,> 100 µM (inactive)
same,GI50,LXFL 529,> 100 µM (inactive)
same,GI50,M14,> 100 µM (inactive)
same,GI50,M19-MEL,> 100 µM (inactive)
same,GI50,MOLT-4,> 100 µM (inactive)
same,GI50,Malme-3M,> 100 µM (inactive)
same,GI50,NCI-H226,> 100 µM (inactive)
same,GI50,NCI-H23,> 100 µM (inactive)
same,GI50,NCI-H460,> 100 µM (inactive)
same,GI50,NCI-H522,> 100 µM (inactive)
same,GI50,OVCAR-3,> 100 µM (inactive)
same,GI50,OVCAR-4,> 100 µM (inactive)
same,GI50,OVCAR-5,> 100 µM (inactive)
same,GI50,OVCAR-8,> 100 µM (inactive)
same,GI50,RPMI-8226,> 100 µM (inactive)
same,GI50,RXF 393,> 100 µM (inactive)
same,GI50,RXF 631,> 100 µM (inactive)
same,GI50,SF-268,> 100 µM (inactive)
same,GI50,SF-295,> 100 µM (inactive)
same,GI50,SF-539,> 100 µM (inactive)
same,GI50,SK-MEL-28,> 100 µM (inactive)
same,GI50,SK-MEL-2,> 100 µM (inactive)
same,GI50,SK-MEL-5,> 100 µM (inactive)
same,GI50,SK-OV-3,> 100 µM (inactive)
same,GI50,SN12C,> 100 µM (inactive)
same,GI50,SNB-19,> 100 µM (inactive)
same,GI50,SNB-75,> 100 µM (inactive)
same,GI50,SW-620,> 100 µM (inactive)
same,GI50,TK-10,> 100 µM (inactive)
same,GI50,U-251,> 100 µM (inactive)
same,GI50,UACC-257,> 100 µM (inactive)
same,GI50,UACC-62,> 100 µM (inactive)
same,GI50,UO-31,> 100 µM (inactive)
same,GI50,XF498,> 100 µM (inactive)
